Source: patent US20180231561A1, “METHODS FOR TREATING SOLID TUMORS AND THE USE OF BIOMARKERS AS A PREDICTOR OF CLINICAL SENSITIVITY TO IMMUNOMODULATORY THERAPIES” (CELGENE CORPORATION, priority 2015, published 2018)
“Also recorded” adds a separate entry of the source. Where a SMILES comes first, the peptide text is derived from it. The star is where a group is joined. Cbz = O=C(OCc1ccccc1)*

Columns and labels:
[1] = test system: Hep3B cells; assay: Growth response of Hep3B cells to treatment compounds (FIG. 6B); assay type: cell-based, human
[2] = test system: ZFP91; assay: Western blot of ZFP91 protein level in HCC cell lines Focus and JHH4; assay type: cell-based; settings: for effect of the compound on ZFP91 after knocking down of CRBN: CRBN knockdown, Focus and JHH4 cells
[3] = test system: P-TBK1; assay: Western blot of P-TBK1 in HCC cells; assay type: cell-based; settings: 3D setting
Procedure: (§1) HCC cells from both Focus and JHH4 cell lines in 2D setting treated with Compound A for 6 hours, 24 hours, and 72 hours, and JHH4 cells in 3D setting treated with Compound A for 15 days were also analyzed by western blot. Cells were harvested and were treated in 200 μl cold cell lysis buffer (1% Triton X-100 from Cell Signaling supplemented with protease inhibitors and phophatase inhibitors from Roche) to generate cell lysate. Proteins from cell lysate were separated by 4-12% Nupage gels (Invitrogen) and transferred to nitrocellulose membranes. Immunoblots were then probed with antibodies recognizing CRBN, ZFP91 (LSBio), P-TBK1, and β-actin (Li-Cor). Signals were detected with a Li-Cor Odyssey Imager. As shown, the level of ZFP91 reduced in response to treatment with Compound A for 6 hours, 24 hours, or 72 hours in both cell lines in 2D setting. […] The level of CRBN increased in response to treatment with Compound A for 6 hours, 24 hours, or 72 hours in both cell lines in 2D setting. […] ZFP91 degradation induced by various doses of Compound A for various time periods was also tested in both Focus and JHH4 cells, as shown in FIG. 4C.

[4] = test system: ZFP91; assay: Western blot of ZFP91 protein level in HCC cell lines Focus and JHH4; assay type: cell-based; settings: for effect on Compound A-induced ZFP91 degradation: Focus and JHH4, 2D, 10 μM for 1 hour, then 5 μM Compound A for 6 hours
Procedure: (§2) Both HCC cells, Focus and JHH4 in 3D setting, were cultured continuously for 15 days treated with either DMSO or Compound A, or were first cultured for about 7 days prior to treatment with either DMSO or Compound A for 24 hours or 72 hours. Cells were harvested and proteins were prepared from the cells for proteomics analysis. The growth of the cells on control plates was also analyzed. In particular, cells were plated in media containing either DMSO or Compound A. Cells were cultured for certain time, and then were harvested onto filter plates. After the plates have dried, scintillation fluid was added to the plates and read on a Top-count reader.
Focus cells were cultured for 18 days either continuously for 18 days in the medium containing DMSO, Compound A, or Compound B, or cultured for 7 days prior to treating with DMSO, Compound A, or Compound B for 11 days. Then cells were harvested and were treated in 200 μl cold cell lysis buffer (1% Triton X-100 from Cell Signaling supplemented with protease inhibitors and phophatase inhibitors from Roche) to generate cell lysate. Proteins from cell lysate were separated by 4-12% nupage gels (Invitrogen) and transferred to nitrocellulose membranes. Immunoblots were then probed with antibodies recognizing CRBN, ZFP91 (LSBio) and β-actin (Li-Cor). Signals were detected with a Li-Cor Odyssey Imager. As shown, the level of ZFP91 reduced in response to treatment with Compound A or Compound B.
as §1
HCC cells from both Focus and JHH4 cell lines in 2D setting were first treated with 10 μM MG132 or MLN4924 for 1 hour, and then were treated with 5 μM DMSO or 5 μM Compound A for 6 hours. Cells were harvested and were treated in cell lysis buffer to generate cell lysate. Proteins from cell lysate were separated by gel electrophoresis and transferred to nitrocellulose membranes. Immunoblots were then probed with antibodies recognizing CRBN, ZFP91 (LSBio), and β-actin (Li-Cor). The results were shown in FIG. 5A, and as shown, both […] or MLN4924 inhibited ZFP91 degradation. MG132 activates c-Jun N-terminal kinase (JNK1), which initiates apoptosis. […] MLN4924 is a NAE1 inhibitor that blocks the activity of Cullin Ring Ligases (CRLs), such as CRL4CRBN.

[5] = test system: ZFP91; assay: Immunostaining of ZFP91 in U87 xenograft tissue; assay type: in vivo
[6] = test system: U87 tumor; assay: U87 xenograft tumor growth; assay type: in vivo; settings: 3 and 30 mg/kg qd
[7] = test system: Focus cells; assay: Colony growth on control plates, 3D Focus cells; assay type: cell-based; settings: vs DMSO
[8] = test system: ZFP91; assay: Western blot of ZFP91 level in Hep3B cells; assay type: cell-based, human
Procedure: The change of ZFP91 level in response to Compound A or Compound B treatments was also evaluated in human hepatoma Hep3B cell lines. Hep3B cells were treated with Compound A or Compound B, and cells were harvested and treated in lysis buffer to generate cell lysate. Proteins from cell lysate were separated by electrophoresis gel and transferred to nitrocellulose membranes. Immunoblots were then probed with antibodies recognizing CRBN, ZFP91, and β-actin. Signals were detected with a Li-Cor Odyssey Imager. The results were shown in the upper panel of FIG. 6A. […] Thus, ZFP91 may be degraded in response treatment compounds regardless of growth response of the cells to the treatment compounds.

[9] = test system: JHH4 cells; assay: Colony growth on control plates, 3D JHH4 cells; assay type: cell-based; settings: 3D JHH4, control plates, vs DMSO
[10] = test system: JHH4 cell line; assay: Proteomic screening in JHH4 cell line under 3D culture; assay type: cell-based
Procedure: as §2

[11] = test system: MST1R (RON), PARP4, MVP, ZFP91, IKBKE, PDE6D, CK1alpha, LGALS2, KAT1, GSPT1, CRBN; assay: Western blot confirmation of proteins identified in the proteomic studies (FIG. 8); assay type: cell-based
Excerpt: Representative proteins identified in the proteomic studies were confirmed in western blot analysis, such as those shown in FIG. 8.

[12] = test system: FOCUS cell line; assay: Proteomic screening in FOCUS cell line under 3D culture; assay type: cell-based; settings: 3D conditions
Procedure: as §2

[13] = test system: HCC xenografts (excised xenograft tumors of HAK-1AJ and Focus); assay: Proteomic screening (TMT) of HCC xenografts treated with DMSO or Compound A; assay type: cell-based
Procedure: HCC xenografts (excised xenograft tumors of HAK-1AJ and Focus) were treated with either with DMSO, or Compound A for either once (single) or multiple times. Cells were harvested at 24 or 72 hours time points, and proteins were fractionated using a basic pH reverse gradient method. Fractionated samples were labeled using a Tandem Mass Tag (TMT) method. Relative abundance was calculated.

[14] = test system: ZFP91; assay: Western blot of ZFP91 level in glioblastoma cell lines U87 and SNB19; assay type: cell-based, human; settings: U87 and SNB19 cells
Procedure: The change of ZFP91 level in response to treatment compounds was evaluated in other solid tumor cell lines, e.g., glioblastoma (GBM) cell lines. […] Proteins from cell lysate were separated by electrophoresis gel and transferred to nitrocellulose membranes. Immunoblots were then probed with antibodies recognizing ZFP91 and β-actin. Signals were detected with a Li-Cor Odyssey Imager.

[15] = test system: CRBN; assay: Western blot of CRBN protein level in HCC cell lines Focus and JHH4; assay type: cell-based
Procedure: as §1, with “Both HCC cells, Focus and JHH4 in 3D setting, were cultured continuously for 15 days treated with either DMSO or Compound A, or were first cultured for about 7 days prior to treatment with either DMSO or Compound A for 24 hours or 72 hours. Cells were harvested and proteins were prepared from the cells for proteomics analysis. The growth of the cells on control plates was also analyzed. In particular, cells were plated in media containing either DMSO or Compound A. Cells were cultured for certain time, and then were harvested onto filter plates. After the plates have dried, scintillation fluid was added to the plates and read on a Top-count reader. HCC” for “HCC”

[16] = test system: NF-κB; settings: read-out: IC50 NF-κB activation; cited from earlier work
[17] = target: CRBN (Homo sapiens, UniProt Q96SW2); settings: in vitro; cited from earlier work
Sequence of CRBN (Homo sapiens, UniProt Q96SW2) (Q96SW2 whole entry, species assumed): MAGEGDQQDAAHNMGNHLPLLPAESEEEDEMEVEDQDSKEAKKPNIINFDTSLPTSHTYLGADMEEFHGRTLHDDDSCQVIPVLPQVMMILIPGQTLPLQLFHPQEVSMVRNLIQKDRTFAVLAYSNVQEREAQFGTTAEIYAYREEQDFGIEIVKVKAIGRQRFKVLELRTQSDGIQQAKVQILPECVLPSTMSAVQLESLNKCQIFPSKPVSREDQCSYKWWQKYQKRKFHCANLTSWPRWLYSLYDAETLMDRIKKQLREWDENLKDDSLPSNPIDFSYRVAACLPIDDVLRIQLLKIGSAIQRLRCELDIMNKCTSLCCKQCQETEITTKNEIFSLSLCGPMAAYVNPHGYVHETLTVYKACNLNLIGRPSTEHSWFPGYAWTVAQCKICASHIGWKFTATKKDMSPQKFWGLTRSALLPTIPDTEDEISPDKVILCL
Sequence of CRBN (Homo sapiens, UniProt Q96SW2) (Q16531 whole entry partner, species assumed): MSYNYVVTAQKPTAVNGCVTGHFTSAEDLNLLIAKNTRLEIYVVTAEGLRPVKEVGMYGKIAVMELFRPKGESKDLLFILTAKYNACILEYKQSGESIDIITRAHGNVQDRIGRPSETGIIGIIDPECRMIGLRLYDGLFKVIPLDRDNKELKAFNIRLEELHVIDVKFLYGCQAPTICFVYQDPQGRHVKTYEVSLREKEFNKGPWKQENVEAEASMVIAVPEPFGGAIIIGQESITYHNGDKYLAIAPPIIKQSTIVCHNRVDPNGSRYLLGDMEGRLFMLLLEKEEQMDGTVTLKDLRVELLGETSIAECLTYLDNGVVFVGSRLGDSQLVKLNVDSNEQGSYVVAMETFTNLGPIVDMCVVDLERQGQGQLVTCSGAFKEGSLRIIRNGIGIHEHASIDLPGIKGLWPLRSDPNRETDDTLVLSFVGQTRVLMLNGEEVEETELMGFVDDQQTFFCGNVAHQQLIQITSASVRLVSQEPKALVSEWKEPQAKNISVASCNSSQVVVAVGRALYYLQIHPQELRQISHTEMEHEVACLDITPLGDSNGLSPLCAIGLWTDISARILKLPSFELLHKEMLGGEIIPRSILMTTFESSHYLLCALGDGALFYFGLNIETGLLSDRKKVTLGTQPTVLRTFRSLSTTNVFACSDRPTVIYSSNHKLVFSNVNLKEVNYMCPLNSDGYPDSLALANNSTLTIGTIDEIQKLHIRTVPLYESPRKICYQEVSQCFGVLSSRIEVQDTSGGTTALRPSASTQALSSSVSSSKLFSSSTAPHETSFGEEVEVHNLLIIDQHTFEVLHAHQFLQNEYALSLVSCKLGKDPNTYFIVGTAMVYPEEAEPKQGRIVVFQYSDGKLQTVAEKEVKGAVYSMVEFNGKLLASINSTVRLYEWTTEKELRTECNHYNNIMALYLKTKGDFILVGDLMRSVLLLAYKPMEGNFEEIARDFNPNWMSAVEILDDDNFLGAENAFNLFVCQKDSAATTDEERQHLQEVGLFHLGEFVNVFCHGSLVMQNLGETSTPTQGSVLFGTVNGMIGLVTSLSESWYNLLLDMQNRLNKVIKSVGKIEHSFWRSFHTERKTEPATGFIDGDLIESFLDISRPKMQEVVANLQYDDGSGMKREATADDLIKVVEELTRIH
Sequence of CRBN (Homo sapiens, UniProt Q96SW2) (Q13619 whole entry partner, species assumed): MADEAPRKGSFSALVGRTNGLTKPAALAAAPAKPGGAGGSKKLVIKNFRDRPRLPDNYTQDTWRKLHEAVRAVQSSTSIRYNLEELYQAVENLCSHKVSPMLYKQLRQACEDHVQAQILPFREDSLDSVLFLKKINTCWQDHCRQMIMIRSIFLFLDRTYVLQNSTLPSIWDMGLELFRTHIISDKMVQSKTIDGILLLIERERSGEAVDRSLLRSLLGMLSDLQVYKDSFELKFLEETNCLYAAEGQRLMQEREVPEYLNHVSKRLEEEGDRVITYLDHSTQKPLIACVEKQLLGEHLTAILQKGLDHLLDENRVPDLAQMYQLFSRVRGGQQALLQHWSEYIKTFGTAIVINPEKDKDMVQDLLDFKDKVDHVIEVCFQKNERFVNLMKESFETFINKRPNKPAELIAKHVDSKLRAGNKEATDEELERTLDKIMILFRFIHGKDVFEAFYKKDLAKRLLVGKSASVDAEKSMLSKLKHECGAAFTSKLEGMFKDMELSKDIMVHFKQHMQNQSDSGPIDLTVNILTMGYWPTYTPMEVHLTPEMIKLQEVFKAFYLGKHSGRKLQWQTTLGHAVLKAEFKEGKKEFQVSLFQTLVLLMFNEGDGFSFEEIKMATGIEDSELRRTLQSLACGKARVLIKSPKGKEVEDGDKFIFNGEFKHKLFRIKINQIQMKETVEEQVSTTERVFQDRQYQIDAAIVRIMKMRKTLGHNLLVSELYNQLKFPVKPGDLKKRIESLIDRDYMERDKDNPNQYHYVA
Sequence of CRBN (Homo sapiens, UniProt Q96SW2) (P62877 whole entry partner, species assumed): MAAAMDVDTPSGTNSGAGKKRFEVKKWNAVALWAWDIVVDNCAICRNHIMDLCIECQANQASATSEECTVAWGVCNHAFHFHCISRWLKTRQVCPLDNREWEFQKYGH

[18] = Focus and JHH4, 2D setting, 6 hours, 24 hours or 72 hours
[19] = Focus and JHH4, 3D, control plate and proteomic preparation, beta-actin control
[20] = Focus cells, 18 days continuous, or 7 days culture then 11 days treatment

SMILES: Cc1nc2cccc(N)c2c(=O)n1C1CCC(=O)NC1=O (centres unmarked) [Compound A, 3-(5-amino-2-methyl-4-oxo-4H-quinazolin-3-yl)-piperidine-2,6-dione]
- sensitivity of Hep3B cells to the compound [1]: not
- effect of the compound on ZFP91 after knocking down of CRBN [2]: reversed
- level of ZFP91 under protein synthesis inhibition ([2]; Focus and JHH4 cells treated with 100 ug/ml cycloheximide (CHX)): decreased; also recorded: accelerates
- P-TBK1 level [3]: upregulated
- level of ZFP91 [4, 18]: reduces
- level of ZFP91 protein [4, 19]: reduced
- level of ZFP91 [4, 20]: reduces
- level of ZFP91 ([4]; JHH4, 3D setting, 15 days): reduced
- ZFP91 in U87 xenograft tissue [5]: degrades
- U87 tumor growth [6]: significantly inhibits
- colony number [7]: reduced
- total colony area [7]: reduced
- ZFP91 level [8]: down-regulated
- colony number [9]: reduced
- total colony area [9]: reduced
- regulation of the proteins listed in Table 5 ([10]; JHH4, 3D conditions): downregulated
- regulation of the proteins listed in Table 3 ([10]; JHH4, 3D culture, basement membrane extracellular matrix): upregulated
- proteins whose levels increased in response to treatment [11]: CK1alpha, LGALS2, KAT1, GSPT1 as well as CRBN
- proteins whose levels reduced in response to treatment [11]: MST1R (RON), RARP4, MVP, ZFP91, IKBKE, PDE6D
- regulation of the proteins listed in Table 4 [12]: upregulated
- regulation of the proteins listed in Table 6 [12]: downregulated
- proteins commonly differentially abundant after treatment ([13]; 24 hours after treatment, both Focus and HAK-1AJ, compared with DMSO): WIBG, KAT1, Nestin, PARP4, and MVP
- proteins downregulated in response to treatment ([13]; proteomic screening study): MVP, PARP4, ZFP91, and ZNF198
- proteins upregulated in response to treatment ([13]; proteomic screening study): Nestin, KAT1/CCBL1, and WIBG; also recorded: Nestin, KAT1/CCBL1, WIBG, CK1-alpha, GSPT1
- ZFP91 level [14]: down-regulated
- level of CRBN [15, 18]: increases
- level of CRBN protein [15, 19]: increased
- level of CRBN ([15]; JHH4, 3D setting, 15 days): increased

SMILES: O=C1CCC(N2Cc3c(OCc4ccc(CN5CCOCC5)cc4)cccc3C2=O)C(=O)N1 (centres unmarked) [Compound B, 3-[4-(4-Morpholin-4-ylmethyl-benzyloxy)-1-oxo-1,3-dihydro-isoindol-2-yl]-piperidine-2,6-dione]
- sensitivity of Hep3B cells to the compound [1]: sensitive
- effect of the compound on ZFP91 after knocking down of CRBN [2]: reversed
- level of ZFP91 [4, 20]: reduces
- ZFP91 level [8]: down-regulated

SMILES: CC(C)C[C@@H](C=O)NC(=O)[C@H](CC(C)C)NC(=O)[C@H](CC(C)C)NC(=O)OCc1ccccc1 [MG132, reference compound] (Cbz-Leu-Leu-Leu-aldehyde)
- effect on Compound A-induced ZFP91 degradation [4]: inhibited; also recorded: block
- effect on reduction of ZFP91 by Compound A or Compound B [8]: blocked
- effect on reduction of ZFP91 by treatment compounds [14]: blocked
- IC50 [16]: 3 µM

SMILES: NS(=O)(=O)OC[C@@H]1C[C@@H](n2ccc3c(N[C@H]4CCc5ccccc54)ncnc32)C[C@@H]1O [MLN4924, reference compound]
- effect on Compound A-induced ZFP91 degradation [4]: inhibited
- effect on Compound A-induced ZFP91 degradation ([4]; listed as MLN): block
- effect on reduction of ZFP91 by Compound A or Compound B [8]: blocked
- effect on reduction of ZFP91 by treatment compounds [14]: blocked

SMILES: O=C1CCC(N2C(=O)c3ccccc3C2=O)C(=O)N1 (centres unmarked) [thalidomide, 2-(2,6-dioxopiperidin-3-yl)-1H-isoindole-1,3(2H)-dione]
- auto-ubiquitination of CRBN [17]: inhibit
